Reference: patent US20240041842A1, “PHARMACEUTICAL COMPOSITION FOR INHIBITING CANCER METASTASIS” (INDUSTRY-ACADEMIC COOPERATION FOUNDATION, YONSEI UNIVERSITY, priority 2021, published 2024)

Experiments:
Snail = assay: Western blot of Snail protein; assay type: cell-based, human; settings: for effect of chloroquine (CQ) on Snail levels: MP or MOG combined with CQ
Method: (§1) Cells were harvested, washed with PBS, and lysed on ice with RIPA buffer containing protease and phophatase inhibitor cocktail (GenDEPOT). After 15 minutes of incubation, the cell lysates were centrifuged at 15,000 rpm at 4° C. for 10 minutes. Protein concentration was measured by Bradford assay (Bio-rad, 500-0006). Equal amounts of total protein were placed on an SDS gel electrophoresis and transferred to a PVDF membrane (Bio-rad). The membrane was blocked with 5% skim milk for 1 hour at room temperature and incubated overnight at 4° C. with primary antibody in a buffer containing 0.1% Tween-20. Subsequently, the membrane was washed three times with Tween-PBS buffer and incubated for 1 hour at room temperature using a secondary antibody diluted in blocking buffer containing 0.1% Tween-20. Subsequently, the membrane was washed three times for 10 minutes each using Tween-TBS. Densitometry of Western blots was measured using ImageJ software.
[…] For autophagy activation, cells were'treated with 2 μM rapamycin (Selleckchem, S1039) for 5 hours. Modulation of intracellular ROS was performed with N-acetyl-cysteine (10 mM) (Sigma, A7250), hydrogen peroxide solution (100 μM to 200 μM) (Sigma, 216763), or CDDO-ME NRF2 activator (50 nM, 100 nM) (Sellckchem, S8078) for 4 to 24 hours. Intercellular calcium signal control was performed for 1 hour using BAPTA-AM (20 μM) (Sigma, A1076) or Calmidazolium Chloride (2.5 μM) (Sigma, C3930). […] For TFEB protein phosphorylation, tacrolimus (1 μM) (Selleckchem, S5003) was treated for 1 hour. […] During siRNA treatment, each siRNA was treated to a concentration of 40 to 50 nM and treated together with Lipofectamine RNAiMax (Thermo Fisher Scientific, 13778150) for transformation, and were used for experiments 48 to 72 hours later. For cDNA treatment, each cDNA was treated to a concentration of 1 to 2 μg in a 6-well plate and treated with Lipofectamine 2000 (Thermo Fisher Scientific, 11668019) for transformation, and were used for experiments 24 hours later.

Intracellular citrate = assay: Citrate assay; assay type: cell-based, human; settings: HBEC-KL; 8 mM MP or 3 mM MOG in the presence of 50 uM CQ
Method: Intracellular citrate levels were calculated in the pmol range using a citrate assay kit (Biovision, K655). After sonication, proteins were removed from the supernatant using a 10 kDa molecular weight cutoff spin column, followed by incubation at room temperature for 30 minutes with 50 μl citrate reaction mixture comprising enzyme mixture, developer and citrate probe. Citrate content was measured by reading OD 570 nm with an Envision Multimode Plate Reader (PerkinElmer 2105-0010, Waltham, MA, USA). After correcting the background in all readings, the value of each sample was determined and normalized to the protein concentration of each sample.

TFEB = assay: Western blot / immunoprecipitation-immunoblot of TFEB (acetylated, phosphorylated, total); assay type: cell-based, human; settings: HBEC-KL; 50 uM STO-609, 24 hours
Method: FIG. 11J illustrates a diagram of immunoblot results of the […] a control (left), and the immunoprecipitation-immunoblot result of TFEB acetylated HBEC-KL cells under the same conditions (right) is also shown,
as §1
For immunoprecipitation, equal amounts of lysate and Co-IP buffer (40 mM HEPES, pH 7.4, 120 mM NaCl, 2 mM EDTA, 0.3% CHAPS (Sigma, 10810118001), 10 mM pyrophosphate (Sigma, 221368), 10 mM glycerophosphate (Sigma, G9422), 50 mM NaF, phosphatase and protease inhibitor mixture) were mixed. Cell lysates (1 μg protein) were incubated overnight at 4° C. on anti-FLAG® M2 Affinity Gel (Sigma, A2220) or anti-acetyl-lysine antibody coated agarose (ImmuneChem Pharmaceuticals, ICP0388). The immunoprecipitate was then washed three times in IP buffer, and the immunoprecipitated complex was dissolved and separated by boiling in IP buffer for 5 minutes.

acetylated Snail = assay: Immunoprecipitation-immunoblot of acetylated Snail; assay type: cell-based, human; settings: A549 luciferase cell line in vitro; 50 uM STO-609, 24 hours
Method: Cell lysates (1 μg protein) were incubated overnight at 4° C. on anti-FLAG® M2 Affinity Gel (Sigma, A2220) or anti-acetyl-lysine antibody coated agarose (ImmuneChem Pharmaceuticals, ICP0388). The immunoprecipitate was then washed three times in IP buffer, and the immunoprecipitated complex was dissolved and separated by boiling in IP buffer for 5 minutes.
For SDS-PAGE electrophoresis, the immunoprecipitated complex was transferred to a nitrocellulose membrane and the membrane was blocked and then incubated for 1 hour at room temperature with Primary antibody and secondary antibody (VeriBlot for IP Detection Reagent (HRP) (Abcam, #ab131366), and anti-mouse IgG tor IP (HRP) (Abeam, #ab131368)).
After washing 3 times, the membrane was incubated with the secondary antibody.

LC3 = assay: Autophagic flux (LC3 Western blot, mRFP-GFP-LC3 lysosomal delivery assay); assay type: cell-based, human; settings: HBEC-KL cell line; NAC or 50 uM STO-609, 24 hours
Method: as §1, with “Representative GFP-LC3, RFP-LC3 and overlapping images are shown. In addition, red puncta (mRFP+/GFP−) and yellow puncta (mRFP+/GFP+) per cell were quantified and graphed (n=15 cells/treatment). Cells” for “Cells”

A549-luc cells = assay: A549-luc tail vein injection metastasis model; assay type: in vivo; settings: nude mice; 25 mg/kg, 100 mg/kg, qd, p.o. 28 consecutive days; compared to the vehicle-treated group
Method: FIG. 13E illustrates role of STO-609 on cancer metastasis in an A549-luc tail vein injection model. After intravenous injection of A549-luc cells into nude mice, vehicle or STO-609 (25 mg/kg and 100 mg/kg qd) was injected for 28 days starting one day after the injection. A picture taken of a bioluminescent image when 4 weeks have elapsed after injection is shown (above). Analysis results of the total metastasis burden by photonic flux are shown (below). FIG. 13H illustrates the role of BMS303141 on cancer metastasis in an A549-luc tail vein injection model. A549-luc cells were intravenously injected into nude mice, and then vehicle or BMS303141 (100 mg/kg q.d.) was injected for 20 days starting one day after the injection. A bioluminescence image when 3 weeks have elapsed after injection is shown. 7- to 9-week-old BALB/c-nu Sic mice were obtained from SLC, Inc. (Shizuoka, Japan) and used, A549-luc cells (#JCRB1414) or SNAI1 shRNA-mediated knockdown A549-luc cells were injected at 3-4.5×10^6 cells through the tail vein of mice. After 3 to 4 weeks, metastasis was monitored by bioluminescence imaging analysis. More specifically, after injecting D-luciferin (75 mg/kg) (PerkinElmer, 122799) into the abdominal cavity of the mouse, images were obtained using an IVIS imaging system (IVIS 200, PerkinElmer, Waltham, MA, USA) in the supine position. Lung tissue was obtained for histopathological analysis. Images were analyzed using commercially available software (ImageScope; Aperio Technologies). In the STO-609 efficacy test, STO-609 (25 mg, 100 mg/kg/day) was orally administered to mice on the day of injection. In the BMS303141 efficacy test, BMS303141 (100 mg/kg/day) was orally administered to mice on the day of injection.

Compound	expression level of Snail decreased by siIDH1 (Snail; HBEC-KL, 3 mM MOG)	Snail levels when ACLY was reduced (Snail; HBEC-KL, MOG supplemented condition, ACLY siRNA)	effect of chloroquine (CQ) on Snail levels (Snail; HBEC-KL)	effect of chloroquine (CQ) on citrate levels (Intracellular citrate)	Snail expression level decreased by siCS (Snail; HBEC-KL, 8 mM MP)	acetylated TFEB (TFEB)	Snail protein (Snail; HBEC-KL cell line, STO-609)	abnormal increase in Snail expression level by AMG-510 (Snail; KL cell lines, 1 uM AMG-510 and 50 uM STO-609)	acetylated Snail (acetylated Snail)	autophagic flux (LC3)	total metastasis burden (photonic flux) (A549-luc cells)	total number of lung metastases (A549-luc cells)
COC(=O)CCC(=O)C(=O)OC [MOG, dimethyl-2-oxoglutarate]	restored	did not recover	completely reverses	completely reverses								
COC(=O)C(C)=O [MP, methyl pyruvate]			completely reverses	completely reverses	not increased							
O=C(O)c1ccc2c3c1cccc3c(=O)n1c3ccccc3nc21 [STO-609]						reduces	reduction	reduced	reduced	decreased	reduced	reduced
